{"source": "patent US6348317B1", "about": "“Fluorescent and DNA cleavage properties of peptide/dye conjugates” (The Arizona Board of Regents, priority 1999, dated 2002)", "system": "GRE3 dsDNA", "experiment": "Photocleavage at 514 nm, PAGE analysis", "format": "biochemical", "experimental": "The purified DNA strands shown in FIG. 2 were 5′^-32P-end-labeled using T4 polynucleotide kinase and purified as described above. Oxygen removal was performed by bubbling argon through the samples. Irradiations were performed on […] samples in a 1.0 mL glass cuvette fit with a septum using an argon-ion laser at 514 nm with a power of 300 mW/cm^2. After irradiation, samples were divided in half and one portion treated with piperidine, the other immediately frozen. Piperidine treatment consisted of adding an equal volume of freshly prepared 20% piperidine in water to the sample followed by heating at 90° C. for 30 minutes. Both the treated and untreated fractions were dried under vacuum. To each dried sample was added […] of 80% formamide in water. The products of the photocleavage experiments were analyzed on a 15% polyacrylamide (19:1) vertical sequencing gel with dimensions 21 cm×40 cm×0.4 mm. Maxam-Gilbert A+G and C+T sequencing reactions were used as a reference. A. M. Maxam, et al., Meth. Enzymol. 65:499-560 (1980). Gels were run at 2000V for 1.5-2 hours. Gels were dried and exposed to a phosphorimaging screen for 4 hours and analyzed on a Molecular Dynamics Storm-840 gel scanner in phosphorimaging mode.\nPhotocleavage of TO-ZF conjugate. We examined the photoinduced cleavage of 5′-32P-end-labeled dsDNA fragments containing the dsDNA sequences GRE1, GRE2 and GRE3 in the presence of either unconjugated TO or TO-ZF. […] We have performed similar photocleavage measurements of the complementary strands in the dsDNA duplexes used in each case. […] After irradiation of TO-ZF bound to dsDNA in Tris buffer solution at 514 nm (514 nm is in the main band of the absorbance spectrum of intercalated thiazole orange as shown in FIG. 3), the photo-products were denatured and separated using denaturing polyacrylamide gel electrophoresis (PAGE). […]\nTo explore other possible mechanisms of thiazole orange mediated photocleavage in the region on the 5′-side of the GRE target sequence, the guanine located within the GRE (5′-TGTTCT-3′) in the GRE1 dsDNA fragment was changed to an adenine to give GRE3 (FIG. 2). […] Fluorescence measurements of TO-ZF binding to GRE1 and GRE3 target sequences (FIG. 5A) show only a modest difference in the dissociation constant between the two sequences. Thus the measured changes in the photocleavage products between GRE1 and GRE3 are not an artifact of strong differences in the binding affinity of TO-ZF between these sequences. […] The total chemical yield of the piperidine dependent reactions in these bands, measured as the number of fluorescence counts in product bands divided by the total counts of a given lane, increased three-fold from 2% in GRE1 (described above) to 6% in GRE3 for samples reacted in the presence of oxygen. […]", "data": [{"substance": "TO-ZF: 29 amino acid single zinc finger from residues 438-465 of glucocorticoid receptor, thiazole orange coupled to a lysine ε-amine", "values": [{"measurement": "pattern of photo-induced cleavage", "setting": "514 nm, gel electrophoresis", "result": "a confined group of bands flanking the altered GRE sequence which are only partially piperidine dependent"}, {"measurement": "increase in band intensity of strand cleavage in the presence of D2O", "setting": "D2O rather than H2O in the buffer", "result": "≤ 25", "unit": "%"}, {"measurement": "lowering of chemical yield in the absence of oxygen", "setting": "piperidine treated samples, absence of oxygen", "result": "10-20%"}, {"measurement": "total chemical yield of the piperidine dependent reactions", "setting": "samples reacted in the presence of oxygen", "result": 6, "unit": "%"}]}]}
